According to patent publication US5420343A, “Derivatives of aromatic cyclic alkylethers” (G. D. Searle & Co., priority 1994, dated 1995):

Tests used:
[1] = molecular target: T1, human COX-II (Homo sapiens, UniProt P35354); assay: Human Enzyme Assay, COX-II (recombinant enzyme, PGE2 ELISA); assay type: biochemical; conditions: 10 μM arachidonic acid, 10-20 min pre-incubation
T1 construct: made in house; host or cells: SF9 insect cells, recombinant baculovirus (pVL1393); coding fragment from Caymen Chemical, Ann Arbor, Mich
T1 sequence (P35354 18-604): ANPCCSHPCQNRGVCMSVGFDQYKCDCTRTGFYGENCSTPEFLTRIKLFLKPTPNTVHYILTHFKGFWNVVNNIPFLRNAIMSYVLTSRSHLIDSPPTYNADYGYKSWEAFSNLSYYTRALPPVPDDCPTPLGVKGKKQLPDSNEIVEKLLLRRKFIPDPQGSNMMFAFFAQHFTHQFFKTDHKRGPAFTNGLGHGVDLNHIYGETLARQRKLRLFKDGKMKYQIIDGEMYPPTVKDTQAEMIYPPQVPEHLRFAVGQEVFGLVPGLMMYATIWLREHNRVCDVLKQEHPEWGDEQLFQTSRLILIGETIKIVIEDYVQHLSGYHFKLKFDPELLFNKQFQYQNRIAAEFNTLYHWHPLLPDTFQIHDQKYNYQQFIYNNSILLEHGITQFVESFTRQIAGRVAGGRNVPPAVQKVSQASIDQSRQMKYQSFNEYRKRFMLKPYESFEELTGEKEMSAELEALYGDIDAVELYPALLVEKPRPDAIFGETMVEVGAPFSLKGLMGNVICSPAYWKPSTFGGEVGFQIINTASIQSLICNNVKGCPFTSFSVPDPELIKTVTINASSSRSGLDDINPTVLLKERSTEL
Procedure: (§1) The compounds of the invention are evaluated with respect to COX-I and COX-II activity in vitro using an enzyme based assay according to the following assay procedure.
(§2) A 2.0 kb fragment containing the coding region for either human or murine COX-I (Caymen Chemical, Ann Arbor, Mich.), or human or murine COX-II (Caymen Chemical, Ann Arbor, Mich.), was cloned into a BamH1 site of the baculovirus transfer vector pVL1393 (Invitrogen, Palo Alto, Calif.) to generate a baculovirus transfer vector. Recombinant baculoviruses were isolated by transfecting 4 μg of baculovirus transfer vector DNA into SF9 cells (2×10e8) (Invitrogen, Palo Alto, Calif.) along with 200 ng of linearized bacium by the phosphate method. See M. D. Summers et al., "A Manual of Methods for Baculovirus Vectors and Insect Cell Culture Procedure," TEXAS AGRICULTURE EXPERIMENTAL STATION BULLETIN, No. 1555 (1987), which is incorporated herein by reference. Recombinant viruses were purified by three rounds of plaque purification, and high titer (10e7-10e8 pfu/ml) stocks of virus were prepared. […]
(§3) COX activity was assayed as PGE2 formed/μg protein/time using an ELISA (Caymen Chemical, Ann Arbor, Mich.) to detect the prostaglandin E2 released. […] The PGE2 formed was measured by standard ELISA technology (Cayman Chemical, Ann Arbor, Mich.). […]

[2] = molecular target: T2, human COX-I (Homo sapiens, UniProt P23219); assay: Human Enzyme Assay, COX-I (recombinant enzyme, PGE2 ELISA); assay type: biochemical; conditions: 10 μM arachidonic acid, 10-20 min pre-incubation
T2 construct: made in house; host or cells: SF9 insect cells, recombinant baculovirus (pVL1393); coding fragment from Caymen Chemical, Ann Arbor, Mich
Procedure: as §1, §2, §3

[3] = molecular target: T3, cellular COX-II (Homo sapiens, UniProt P35354); assay: Cellular COX-II Assay (Cell Fibroblast Assay); assay type: cell-based; conditions: IL-1 beta stimulated human fetal dermal fibroblasts; 20 μM arachidonic acid; PGE2 by ELISA
T3 construct: stimulated human fetal dermal fibroblasts (HFDF, derived from primary cell cultures); endogenous in cells; host or cells: human fetal dermal fibroblasts (HFDF), primary culture, stimulated overnight with IL-1 beta
T3 sequence (P35354 18-604): T1 sequence (P35354 18-604)
Procedure: The results for this assay, as well as for the next assay (COX-II Cell Fibroblast Assay) are expressed in terms of COX-I or II activity as an IC50 value (50% inhibitory concentration), as defined as the amount of prostaglandin E2 (PGE2) formed per protein per time in response to the enzyme substrate arachidonic acid.
The compounds of the invention are evaluated with respect to the inhibition of cellular COX-II in vitro according to the following Cellular COX-II Assay (Cell Fibroblast Assay).
Inhibition of cellular COX-II by test compounds is determined using stimulated human fetal dermal fibroblasts (HFDF, derived from primary cell cultures). […] Supernatants are collected and Prostaglandin E2 (PGE2) production is measured by an enzyme-linked immunosorbent assay (ELISA; antibodies produced by Cayman Chemical Company, Ann Arbor, Mich.). […]
The procedure uses information for indomethacin and the rest of the plate in defining the minimum and maximum response. […] For the other compounds, if a response is measured which is less than the response for the unstimulated wells, then this response may be considered to be another estimate of a minimal response. […]

[4] = tested on: COX II enzyme; conditions: E. Meade et al., J. Biol. Chem. 268, 6610 (1993); cited from earlier work
[5] = Futaki et al., Gen. Pharmac. 24, 105 (1993); cited from earlier work
[6] = Futaki et al., Gen. Pharmac. 24, 105 (1993); cited from earlier work; remark: listed apart in the source

T2 sequence (P23219 24-599): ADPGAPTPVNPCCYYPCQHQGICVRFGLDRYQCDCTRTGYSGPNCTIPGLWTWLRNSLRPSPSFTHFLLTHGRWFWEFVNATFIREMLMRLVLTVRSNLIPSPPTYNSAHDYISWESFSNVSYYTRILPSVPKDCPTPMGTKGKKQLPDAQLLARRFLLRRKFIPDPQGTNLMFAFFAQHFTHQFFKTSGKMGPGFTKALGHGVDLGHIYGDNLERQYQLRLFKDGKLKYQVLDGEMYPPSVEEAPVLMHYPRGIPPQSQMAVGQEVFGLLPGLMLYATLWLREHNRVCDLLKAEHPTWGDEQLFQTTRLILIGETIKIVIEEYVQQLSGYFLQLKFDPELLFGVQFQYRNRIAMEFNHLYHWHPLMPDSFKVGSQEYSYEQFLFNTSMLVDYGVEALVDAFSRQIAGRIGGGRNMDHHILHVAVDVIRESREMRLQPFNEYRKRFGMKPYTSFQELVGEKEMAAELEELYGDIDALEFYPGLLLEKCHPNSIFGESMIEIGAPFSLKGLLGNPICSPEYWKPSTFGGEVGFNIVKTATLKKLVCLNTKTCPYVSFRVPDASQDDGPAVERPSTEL

SMILES: CC(C)(C)c1cc(C[C@H]2CCC[C@H]2OCC(=O)O)cc(C(C)(C)C)c1 (relative stereo) [Example 7, (cis)-2-[[2-[3,5-bis(1,1-dimethylethyl) -phenylmethyl]cyclopentyl]oxy]-acetic acid]
- IC50 [1]: 1340 nM
- IC50 [2]: > 100000 nM

SMILES: CC(C)(C)c1cc(C[C@@H]2CCC[C@H]2OCC(=O)O)cc(C(C)(C)C)c1 (relative stereo) [Example 8, (trans)-2-[[2-[3,5-bis(1,1-dimethylethyl) -phenylmethyl]cyclopentyl]oxy]acetic acid]
- IC50 [1]: > 100000 nM
- IC50 [3]: 2 nM
- IC50 [2]: > 100000 nM

SMILES: COc1ccc2cc(CC(=O)O)ccc2c1 [6-methoxy-2-napthylacetic acid]
- selective inhibition of COX II enzyme [4]: selectively inhibit the COX II enzyme

SMILES: CS(=O)(=O)Nc1ccc([N+](=O)[O-])cc1OC1CCCCC1 [N-(2-cyclohexyloxy-4-nitrophenyl)methanesulfonamide]
- gastric side effects [5]: lacks gastric side effects
- anti-inflammatory activity [6]: anti-inflammatory
